Our source for the IC50 values is patent US9145407B2, “Sulfonamide compounds” (Pfizer Limited, priority 2010, dated 2015).

Counter-ions that a name gives are not always drawn.

This test concerns the target T1, Nav1.7 (or SCN9A) channel (Homo sapiens, UniProt Q15858).
T1 construct: expressed in transfected cells; host or cells: HEK cells, stably transfected, G-418 selected
As to the kind of experiment: Nav1.7 (hSCN9A) whole-cell electrophysiology, PatchXpress platform. Particulars: HEK cells stably expressing hSCN9A, held at V1/2 of inactivation, calculated from single point % inhibition, read-out: Nav1.7 EIC50 (estimated IC-50). Type of test: cell-based. The method, then: The ability of the compounds of list (I) to block the Nav1.7 (or SCN9A) channel was measured using the assay described below.
Human Embryonic Kidney (HEK) cells were transfected with an hSCN9A construct using lipofectamine reagent (Invitrogen), using standard techniques. Cells stably expressing the hSCN9A constructs were identified by their resistance to G-418 (400 μg/ml). Clones were screened for expression using the whole-cell voltage-clamp technique.
HEK cells stably transfected with hSCN9A were maintained in DMEM medium supplemented with 10% heat-inactivated fetal bovine serum and 400 μg/ml G-418 in an incubator at 37° C. with a humidified atmosphere of 10% CO2. For HTS, cells were harvested from flasks by trypsinization and replated in an appropriate multi-well plate (typically 96 or 384 wells/plate) such that confluence would be achieved within 24 hours of plating. For electrophysiological studies, cells were removed from the culture flask by brief trypsinization and re-plated at low density onto glass cover slips. Cells were typically used for electrophysiological experiments within 24 to 72 hours after plating.
Cover slips containing HEK cells expressing hSCN9A were placed in a bath on the stage of an inverted microscope and perfused (approximately 1 ml/minutes) with extracellular solution of the following composition: 138 mM NaCl, 2 mM CaCl2, 5.4 mM KCl, 1 mM MgCl2, 10 mM glucose, and 10 mM HEPES, pH 7.4, with NaOH. […] The osmolarity of the extracellular and intracellular solutions was 300 mOsm/kg and 295 mOsm/kg, respectively. All recordings were made at room temperature (22-24° C.) using AXOPATCH 200B amplifiers and PCLAMP software (Axon Instruments, Burlingame, Calif.).
hSCN9A currents in HEK cells were measured using the whole-cell configuration of the patch-clamp technique (Hamill et al., 1981). Uncompensated series resistance was typically 2 to 5 mega ohms and >85% series resistance compensation was routinely achieved. As a result, voltage errors were negligible and no correction was applied. Current records were acquired at 20 to 50 KHz and filtered at 5 to 10 KHz.
HEK cells stably transfected with hSCN9A were viewed under Hoffman contrast optics and placed in front of an array of flow pipes emitting either control or compound-containing extracellular solutions. All compounds were dissolved in dimethyl sulfoxide to make 10 mM stock solutions, which were then diluted into extracellular solution to attain the final concentrations desired. […] The voltage-dependence of inactivation was determined by applying a series of depolarizing prepulses (8 sec long in 10 mV increments) from a negative holding potential. The voltage was then immediately stepped to 0 mV to assess the magnitude of the sodium current. Currents elicited at 0 mV were plotted as a function of prepulse potential to allow estimation of the voltage at which 50% of the channels were inactivated (midpoint of inactivation or V1/2). Compounds were tested for their ability to inhibit hSCN9A sodium channels by activating the channel with a 20 msec voltage step to 0 mV following an 8 second conditioning prepulse to the empirically determined V1/2. Compound effect (% inhibition) was determined by difference in current amplitude before and after application of test compounds. For ease of comparison, “estimated IC-50” (EIC50) values were calculated from single point electrophysiology data by the following equation, (tested concentration, uM)×(100−% inhibition/% inhibition). Inhibition values <20% and >80% were excluded from the calculation.
Electrophysiological assays were conducted with PatchXpress 7000 hardware and associated software (Molecular Devices Corp). All assay buffers and solutions were identical to those used in conventional whole-cell voltage clamp experiments described above. hSCN9A cells were grown as above to 50%-80% confluency and harvested by trypsinization. […]

T1 sequence (Q15858 whole entry): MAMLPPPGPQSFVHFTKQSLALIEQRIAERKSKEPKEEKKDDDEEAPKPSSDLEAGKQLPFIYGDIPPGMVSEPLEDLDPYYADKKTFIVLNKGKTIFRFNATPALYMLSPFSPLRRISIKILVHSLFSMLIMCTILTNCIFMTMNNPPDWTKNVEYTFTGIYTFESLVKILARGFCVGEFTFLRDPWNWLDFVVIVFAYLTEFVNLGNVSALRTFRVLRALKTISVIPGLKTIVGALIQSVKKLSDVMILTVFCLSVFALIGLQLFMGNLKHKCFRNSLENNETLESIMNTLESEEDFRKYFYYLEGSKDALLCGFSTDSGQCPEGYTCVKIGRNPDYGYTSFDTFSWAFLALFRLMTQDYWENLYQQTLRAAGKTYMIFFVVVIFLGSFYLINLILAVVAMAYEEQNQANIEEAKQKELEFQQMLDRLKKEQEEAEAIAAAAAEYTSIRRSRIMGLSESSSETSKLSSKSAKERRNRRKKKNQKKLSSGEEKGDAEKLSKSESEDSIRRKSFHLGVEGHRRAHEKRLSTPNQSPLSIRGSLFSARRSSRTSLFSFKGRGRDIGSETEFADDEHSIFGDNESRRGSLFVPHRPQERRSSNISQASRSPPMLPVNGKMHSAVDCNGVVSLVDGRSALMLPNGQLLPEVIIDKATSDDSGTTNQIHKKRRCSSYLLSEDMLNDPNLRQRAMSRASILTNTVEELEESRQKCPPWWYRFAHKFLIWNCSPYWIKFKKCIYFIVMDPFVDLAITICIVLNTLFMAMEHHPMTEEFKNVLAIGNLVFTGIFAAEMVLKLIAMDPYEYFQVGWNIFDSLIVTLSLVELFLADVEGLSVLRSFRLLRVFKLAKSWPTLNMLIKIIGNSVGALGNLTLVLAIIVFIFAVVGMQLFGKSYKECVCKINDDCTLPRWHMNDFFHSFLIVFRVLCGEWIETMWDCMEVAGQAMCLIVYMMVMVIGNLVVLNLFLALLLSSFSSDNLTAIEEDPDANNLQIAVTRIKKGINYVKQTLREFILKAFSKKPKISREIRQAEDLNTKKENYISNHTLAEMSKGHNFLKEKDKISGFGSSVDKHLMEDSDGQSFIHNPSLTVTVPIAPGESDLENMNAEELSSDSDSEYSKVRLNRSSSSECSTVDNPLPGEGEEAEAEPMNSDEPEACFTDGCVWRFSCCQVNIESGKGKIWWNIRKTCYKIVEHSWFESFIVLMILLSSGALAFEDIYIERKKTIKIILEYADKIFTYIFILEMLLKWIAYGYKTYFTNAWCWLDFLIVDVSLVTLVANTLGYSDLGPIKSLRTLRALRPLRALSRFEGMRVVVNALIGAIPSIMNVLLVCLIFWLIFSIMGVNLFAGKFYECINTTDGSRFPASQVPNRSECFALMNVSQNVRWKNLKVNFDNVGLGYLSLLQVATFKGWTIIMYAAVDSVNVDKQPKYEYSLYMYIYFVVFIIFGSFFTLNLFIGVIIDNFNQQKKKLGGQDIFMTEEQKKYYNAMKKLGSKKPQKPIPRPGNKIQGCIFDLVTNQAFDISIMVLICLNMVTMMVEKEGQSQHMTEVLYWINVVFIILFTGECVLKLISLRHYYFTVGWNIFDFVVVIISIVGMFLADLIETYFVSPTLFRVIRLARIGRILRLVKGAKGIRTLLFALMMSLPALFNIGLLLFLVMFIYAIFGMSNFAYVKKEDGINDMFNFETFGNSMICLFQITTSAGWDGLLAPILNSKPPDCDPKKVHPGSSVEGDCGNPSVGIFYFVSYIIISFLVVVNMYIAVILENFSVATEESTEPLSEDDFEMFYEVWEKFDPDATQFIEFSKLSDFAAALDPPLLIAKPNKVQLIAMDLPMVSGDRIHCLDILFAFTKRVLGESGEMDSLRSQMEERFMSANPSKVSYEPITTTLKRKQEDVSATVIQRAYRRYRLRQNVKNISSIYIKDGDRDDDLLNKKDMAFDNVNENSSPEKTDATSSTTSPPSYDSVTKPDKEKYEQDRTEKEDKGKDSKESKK

Consider `Nc1cc(-c2cc(Cl)ccc2Oc2cc(F)c(S(=O)(=O)Nc3cscn3)cc2Cl)ccn1` [Example 10, 4-[2-(2-Aminopyridin-4-yl)-4-chlorophenoxy]-5-chloro-2-fluoro-N-1,3-thiazol-4-ylbenzenesulfonamide trifluoroacetate], for which the IC50 is 10.8 nM. Consider `O=S(=O)(Nc1cscn1)c1cc(Cl)c(Oc2cc(C(F)(F)F)c(F)cc2-c2ccnnc2)cc1F` [Example 4, 5-Chloro-2-fluoro-4-[4-fluoro-2-pyridazin-4-yl-5-(trifluoromethyl)phenoxy]-N-1,3-thiazol-4-ylbenzenesulfonamide bis(trifluoroacetate)], for which the IC50 is 27.5 nM.

As for `O=S(=O)(Nc1cscn1)c1cc(F)c(Oc2ccc(Cl)cc2-c2ccnc(N3CCNCC3)n2)cc1F` [Example 17, 4-[4-chloro-2-(2-piperazin-1-ylpyrimidin-4-yl)phenoxy]2,5-difluoro-N-1,3-thiazol-4-ylbenzenesulfonamide trifluoroacetate], the IC50 is 10 nM. To `Nc1cc(-c2cc(C(F)(F)F)ccc2Oc2cc(F)c(S(=O)(=O)Nc3ncc(F)cn3)cc2Cl)ccn1` [Example 6, 4-[2-(2-Aminopyridin-4-yl)-4-(trifluoromethyl)phenoxy]-5-chloro-2-fluoro-N-(5-fluoropyrimidin-2-yl)benzenesulfonamide 4-methylbenzenesulfonate] belongs 8.5 nM; to `O=S(=O)(Nc1cscn1)c1cc(Cl)c(Oc2cc(F)c(C(F)(F)F)cc2-c2ccnnc2)cc1F` [Example 3, 5-Chloro-2-fluoro-4-[5-fluoro-2-pyridazin-4-yl-4-(trifluoromethyl)phenoxy]-N-1,3-thiazol-4-ylbenzenesulfonamide], 18 nM; to `CN1CC(n2nccc2-c2cc(C(F)(F)F)ccc2Oc2cc(F)c(S(=O)(=O)Nc3nncs3)cc2Cl)C1` [Example 14, 5-Chloro-2-fluoro-4-{4-trifluoromethyl-2-[1-(1-methylazetidin-3-yl)-1H-pyrazol-5-yl]phenoxy}-N-1,3,4-thiadiazol-ylbenzenesulfonamide], 2.6 nM. To `O=S(=O)(Nc1cscn1)c1cc(Cl)c(Oc2ccc(OC(F)(F)F)cc2-c2ccnnc2)cc1F` [Example 12, 5-Chloro-2-fluoro-4-[2-pyridazin-4-yl-4-(trifluoromethoxy)phenoxy]-N-1,3-thiazol-4-ylbenzenesulfonamide trifluoroacetate] belongs 14.6 nM; to `Cc1nnccc1-c1cc(C(F)(F)F)ccc1Oc1ccc(S(=O)(=O)Nc2ncns2)cc1C#N` [Example 15, 3-Cyano-4-[2-(3-methylpyridazin-4-yl)-4-(trifluoromethyl)phenoxy]-N-1,2,4-thiadiazol-5-ylbenzenesulfonamide], 11.6 nM. Take `O=S(=O)(Nc1cscn1)c1cc(Cl)c(Oc2ccc(Cl)cc2-c2ccnc(N3CCNCC3)n2)cc1F` [Example 1, 5-Chloro-4-[4-chloro-2-(2-piperazin-1-ylpyrimidin-4-yl)phenoxy]-2-fluoro-N-1,3-thiazol-4-ylbenzenesulfonamide trifluoroacetate]: the IC50 was 6.7 nM.

With `Nc1[nH]ncc1-c1cc(F)ccc1Oc1cc(F)c(S(=O)(=O)Nc2cscn2)cc1Cl` [Example 11, 4-[2-(5-Amino-1H-pyrazol-4-yl)-4-fluorophenoxy]-5-chloro-2-fluoro-N-1,3-thiazol-4-ylbenzenesulfonamide trifluoroacetate], the IC50 is 16.6 nM. Take `Nc1cc(-c2cc(Cl)ccc2Oc2cc(F)c(S(=O)(=O)Nc3ncc(F)cn3)cc2Cl)ccn1` [Example 5, 4-[2-(2-Aminopyridin-4-yl)-4-chlorophenoxy]-5-chloro-2-fluoro-N-(5-fluoropyrimidin-2-yl)benzenesulfonamide dihydrochloride]: the IC50 was 11.8 nM. As to `Nc1n[nH]cc1-c1cc(OC(F)(F)F)ccc1Oc1cc(F)c(S(=O)(=O)Nc2cscn2)cc1Cl` [Example 8, 4-[2-(3-Amino-1H-pyrazol-4-yl)-4-(trifluoromethoxy)phenoxy]-5-chloro-2-fluoro-N-1,3-thiazol-4-ylbenzenesulfonamide dihydrochloride], the IC50 was 9.9 nM.

On to `Cc1cc(S(=O)(=O)Nc2ncns2)ccc1Oc1ccc(C(F)(F)F)cc1-c1ccnnc1` [Example 16, 3-Methyl-4-[2-pyridazin-4-yl-4-(trifluoromethyl)phenoxy]-N-1,2,4-thiadiazol-5-ylbenzenesulfonamide], for which the IC50 was 3.2 nM. With `O=S(=O)(Nc1nncs1)c1cc(Cl)c(Oc2ccc(Cl)cc2-c2ccnc(N3CCNCC3)n2)cc1F` [Example 2, 5-Chloro-4-[4-chloro-2-(2-piperazin-1-ylpyrimidin-4-yl)phenoxy]-2-fluoro-N-1,3,4-thiadiazol-2-ylbenzenesulfonamide trifluoroacetate], the IC50 is 5 nM.

`O=S(=O)(Nc1nncs1)c1cc(Cl)c(Oc2ccc(C(F)(F)F)cc2-c2ccnn2C2CNC2)cc1F` [Example 13]: the IC50 was 1.1 nM. `Nc1cc(-c2cc(Cl)ccc2Oc2ccc(S(=O)(=O)Nc3nncs3)cc2Cl)ccn1` [Example 9, 4-[2-(2-Aminopyridin-4-yl)-4-chlorophenoxy]-3-chloro-N-1,3,4-thiadiazol-2-ylbenzenesulfonamide trifluoroacetate]: the IC50 is 24 nM. Consider `Nc1cc(-c2cc(F)ccc2Oc2cc(F)c(S(=O)(=O)Nc3cscn3)cc2Cl)ccn1` [Example 7, 4-[2-(2-Aminopyridin-4-yl)-4-fluorophenoxy]-5-chloro-2-fluoro-N-1,3-thiazol-4-ylbenzenesulfonamide trifluoroacetate], for which the IC50 is 14.7 nM.
